Literature values in US20170246115A1, “MEDICINE” (KOWA COMPANY, LTD., priority 2012, published 2017).

Conditions: amorphous form formed on drying crystal form A at a water content of 4% or lower

O=C([O-])C[C@H](O)C[C@H](O)/C=C/c1c(C2CC2)nc2ccccc2c1-c1ccc(F)cc1.O=C([O-])C[C@H](O)C[C@H](O)/C=C/c1c(C2CC2)nc2ccccc2c1-c1ccc(F)cc1.[Ca+2] [amorphous pitavastatin calcium]
storage stability: considerably poor storage stability
